Experimental data published in patent publication US20260042802A1, “POLYPEPTIDE AND USE THEREOF” (priority 2024, published 2026).
Where a SMILES comes first, the peptide text is derived from it. Bridges are numbered along the chain shown (N, C = ends).

Tested on: mouse acetate acid writhing model
Assay: Mouse acetate acid writhing model
Format: in vivo, C57BL/6 mice
Source text: Seventy SPF-grade healthy C57BL/6 mice, half male and half female, weighing 22-25 g and 8-10 weeks old, are randomly selected. Seventy C57BL/6 mice are weighed and numbered in ascending order of body weight (No. S1-S70). The mice are randomly divided into seven groups in terms of the randomized numerical table method, which are the saline group and the experimental groups, among which the experimental groups include the PPN-01 group, the PPN-04 group, the PPN-06 group, the PPN-11 group, the PPN-12 group, and the PPN-16 group. The dosing concentration (i.e., the concentration of added polypeptides PPN-01, PPN-04, PPN-06, PPN-11, PPN-12, and PPN-16) in each group is 10 mg/kg, with 10 mice in each group.
(§1) Saline Group: 10 healthy mice are routinely reared for one week; the saline is intraperitoneally injected once daily at a concentration of 10 ml/kg for 7 consecutive days; 15 min after the last injection is finished, 0.7% glacial acetic acid (10 ml/kg) is intraperitoneally injected; and each mouse is observed for their writhing behaviors.
Experimental Group: 10 healthy mice are routinely reared for one week; 10 ml/kg of different polypeptides are injected intraperitoneally at a concentration of 0.1 mL/10 g once daily for 7 consecutive days; 15 min after the last injection is finished, 0.7% glacial acetic acid (10 ml/kg) is intraperitoneally injected; and each mouse is observed for their behaviors in writhing.
During the above experiments, the time of first writhing (writhing latency) and the number of writhing in each mouse within 15 min are recorded immediately after the injection of glacial acetic acid solution in each group of mice. When behavioral responses such as inward concavity of the abdomen, extension of the torso and hind limbs, and elevation of the buttocks occur, it is considered to be a complete writhing response, and the results are shown in Table 3 and FIG. 6.
Forty SPF-grade healthy C57BL/6 mice, half male and half female, weighing 22-25 g and 8-10 weeks old, are randomly selected. Forty C57BL/6 mice are weighed and numbered in ascending order of body weight (No. 1 to No. 40). The mice are randomly divided into five groups according to the randomized numerical table method, namely, the saline group, the low-concentration group (2.5 mg/kg), the medium-concentration group (10 mg/kg), the high-concentration group (40 mg/kg), and the diclofenac sodium group (30 mg/kg), with eight mice in each group.
as §1, with “Group: 8” for “Group: 10”, “their behaviors in writhing. […]” for “their writhing behaviors.”

[1] = 10 mg/kg i.p. once daily for 7 days, 0.7% glacial acetic acid 15 min after last injection, 10 mice

CSCC[C@@H]1NC(=O)CNC(=O)[C@H](CCC(=O)O)NC(=O)[C@@H]2CSSC[C@H](NC(=O)[C@H](Cc3ccc(O)cc3)NC(C)=O)C(=O)N[C@@H](CCC(N)=O)C(=O)N[C@@H](CCCCN)C(=O)N[C@@H](Cc3ccccc3)C(=O)N[C@@H](CC(C)C)C(=O)N[C@@H](C)C(=O)N3CCC[C@H]3C(=O)N[C@H]3CSSC[C@H](NC(=O)[C@H](CCC(=O)O)NC1=O)C(=O)N[C@@H](CCCCN)C(=O)N[C@@H](CC(C)C)C(=O)N[C@@H](Cc1c[nH]c4ccccc14)C(=O)N[C@H](C(=O)N[C@@H](CCCCN)C(=O)N[C@@H](CCCCN)C(=O)N[C@@H](CCCCN)C(=O)N[C@@H](CC(C)C)C(=O)N[C@@H](Cc1c[nH]c4ccccc14)C(N)=O)CSSC[C@H](NC(=O)[C@H](CCCCN)NC(=O)[C@H](CCCNC(=N)N)NC(=O)[C@H](CCC(=O)O)NC(=O)[C@H](CO)NC(=O)[C@H](CC(=O)O)NC3=O)C(=O)N2 [PPN-01] (Ac-YCQKFLAPCDSERKCCEGMECKLWCKKKLW-NH2; disulfide 2-16, 9-21, 15-25)
Number of writhing [1]: 14.4 times/15 min
Time of first writhing [1]: 4.15 min
analgesic effect on the mouse acetate acid writhing model (10 mg/kg i.p., 7 days, compared with saline group): certain analgesic effect
